Results: patent publication US12729192B2, “CDK9 inhibitor and use thereof” (PHARMABLOCK SCIENCES (NANJING), INC., priority 2020, dated 2026)
Read-outs that look alike come from different tables or passages of the source.

How the values were obtained:
CDK2 = target: T1, CDK2 (Homo sapiens, UniProt P24941); assay: CDK2 kinase activity inhibition (ADP-Glo); assay type: biochemical; conditions: 10 μM ATP, 2 h at room temperature
T1 construct: purchased Carna Biosciences, Inc
Procedure: (§1) CDK9 kinase was manufactured by the company or commercially available. CDK1, CDK2 and CDK7 were purchased from Carna Biosciences, Inc. ADP-Glo™ kit was purchased from Promega Corporation. Dithiothreitol (DTT), Tween-20, dimethylsulfoxide (DMSO), bovine serum albumin (BSA) and Tris base were obtained from Sigma at the available highest level of purity.
(§2) General procedures for CDK inhibition determination: The determination was performed in a buffer consisting of 50 μM DTT, 0.1% BSA, 40 mM Tris-HCl pH=7.5 and 20 mM MgCl2. The compound dissolved in DMSO and CDK enzymes were diluted with the buffer. 1 μL of the compound solution in 5% DMSO and 2 μL of the CDK enzyme solution were added to a white low-volume 384-well microtiter plate and incubated for 20 min at room temperature. Ultra pure ATP and the substrate polypeptide (purchased from GenScript Biotech Corporation) were diluted together into the buffer and added to a mixed solution of the compound and the enzyme, 2 μL per well. They were incubated for 2 h at room temperature.
(§3) After the reaction was completed, 5 μL of ADP-Glo™ reagent was added to each well and incubated for 40 min at room temperature, and then 10 μL of test reagent was added to each well and incubated for 30 mi at room temperature. Chemical luminescence values were measured by using a Tecan (Männedorf, Switzerland) multifunctional plate reader Spark for plate reading. The IC50 value of the inhibitor was obtained by fitting the chemical luminescence intensity ratio in the S-shaped dosage reaction curve using Prism 7 (La Jolla, 15 CA) relative to the concentration of the inhibitor.

MOLM-13 cells = assay: Tumor cell proliferation inhibition experiment (CellTiter-Glo); assay type: cell-based; conditions: Homo sapiens, read-out: MOLM-13 (nM) IC50, cell proliferation inhibition
Source text: An acute myeloid leukemia (AML) cell line (MOLM-13) was purchased from NANJING COBIOER BIOSCIENCES CO., LTD. An RPMI1640 medium and a penicillin-streptomycin double-antibody were purchased from ThermoFisher (Waltham, MA, USA). Certified fetal bovine serum (FBS) was purchased from Biological Industries (Israel). A Corning 384-well cell culture plate was purchased from CORNING (USA). Cell-Titer Glo® was purchased from Promega Corporation (Madison, WI, USA).
To evaluate the ability of the synthetic compound to inhibit the proliferation of MOLM-13 cells, MOLM-13 cells at an exponential growth stage were inoculated at a density of 500,000 cell/mL in the RPMI1640 medium containing 20% bovine serum and 1% penicillin-streptomycin double-antibody, and the 384-well plate contained 20 μL per well and placed overnight in an 37° C., 5% CO2 incubator. Compound powder was dissolved in DMSO to prepare a storage mother liquor with a concentration of 2 mM, and 12 dilutions with three-fold gradient concentrations were further prepared. 1 μL of gradient-diluted DMSO solution was added to 99 μL of cell culture medium (the final maximum concentration of the compound in the assay was 10 uM and the final concentration of DMSO was 0.5%). 20 μL of compound solution in the medium was added at gradients to each cell-coated test well of the 384-well plate. After the compound solution was added, the 384-well plate was incubated for 16 h in a 37° C., 5% CO2 incubator. Cell viability was determined by quantifying ATPs present in test wells using the CellTiter-Glo kit from Promega (Madison, WI, USA). After 20 minutes of incubation, readings were obtained under a chemical luminescence procedure using Tecan's Spark multifunctional plate reader. The concentration (IC50 value) of the compound at which the cell survival rate was inhibited by 50% was determined using an S-shaped dosage response model (variable slope, four parameters) in Prism 7 (LaJolla, CA).

CDK1 = target: T2, CDK1 (Homo sapiens, UniProt P06493); assay: CDK1 kinase activity inhibition (ADP-Glo); assay type: biochemical; conditions: 50 μM ATP, 2 h at room temperature
T2 construct: purchased Carna Biosciences, Inc
Procedure: as §1, §2, §3

CDK7 = target: T3, CDK7 (Homo sapiens, UniProt P50613); assay: CDK7 kinase activity inhibition (ADP-Glo); assay type: biochemical; conditions: 10 μM ATP, 2 h at room temperature
T3 construct: purchased Carna Biosciences, Inc
Procedure: as §1, §2, §3

CDK9 = CDK9 (Homo sapiens, UniProt P50750); assay: CDK9 kinase activity inhibition (ADP-Glo); assay type: biochemical; conditions: 10 μM ATP, 2 h at room temperature
Procedure: as §1, §2, §3

[1] = acute myeloid leukemia cell line MOLM-13, 16 h incubation, CellTiter-Glo

T3 sequence (P50613 whole entry): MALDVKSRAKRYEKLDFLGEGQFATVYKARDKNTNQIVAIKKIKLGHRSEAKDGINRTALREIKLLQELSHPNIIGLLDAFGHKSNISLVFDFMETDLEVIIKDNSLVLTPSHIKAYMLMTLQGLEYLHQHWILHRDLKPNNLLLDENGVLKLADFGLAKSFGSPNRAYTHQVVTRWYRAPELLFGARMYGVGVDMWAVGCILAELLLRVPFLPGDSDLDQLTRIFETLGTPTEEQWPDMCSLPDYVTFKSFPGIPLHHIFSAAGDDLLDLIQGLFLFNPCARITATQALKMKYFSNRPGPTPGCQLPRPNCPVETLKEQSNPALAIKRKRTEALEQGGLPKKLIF
T3 sequence (P51946 whole entry partner): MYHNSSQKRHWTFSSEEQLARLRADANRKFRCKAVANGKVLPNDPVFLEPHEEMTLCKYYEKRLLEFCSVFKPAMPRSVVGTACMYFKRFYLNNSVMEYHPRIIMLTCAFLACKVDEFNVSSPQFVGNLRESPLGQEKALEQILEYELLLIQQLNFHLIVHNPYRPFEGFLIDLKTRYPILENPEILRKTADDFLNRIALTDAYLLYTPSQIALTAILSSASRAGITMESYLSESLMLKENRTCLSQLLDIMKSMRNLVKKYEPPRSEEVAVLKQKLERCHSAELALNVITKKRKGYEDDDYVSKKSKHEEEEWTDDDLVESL
T3 sequence (P51948 whole entry partner): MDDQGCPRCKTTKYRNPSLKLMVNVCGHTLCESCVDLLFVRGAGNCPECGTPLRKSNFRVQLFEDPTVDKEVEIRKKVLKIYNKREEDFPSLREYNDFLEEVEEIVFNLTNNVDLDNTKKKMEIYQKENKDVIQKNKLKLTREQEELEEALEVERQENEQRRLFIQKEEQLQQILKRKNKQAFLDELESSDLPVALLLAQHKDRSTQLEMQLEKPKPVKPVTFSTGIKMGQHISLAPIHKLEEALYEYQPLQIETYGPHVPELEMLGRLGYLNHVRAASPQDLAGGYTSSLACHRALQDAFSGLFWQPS
Chain of CDK9 (P50750 whole entry): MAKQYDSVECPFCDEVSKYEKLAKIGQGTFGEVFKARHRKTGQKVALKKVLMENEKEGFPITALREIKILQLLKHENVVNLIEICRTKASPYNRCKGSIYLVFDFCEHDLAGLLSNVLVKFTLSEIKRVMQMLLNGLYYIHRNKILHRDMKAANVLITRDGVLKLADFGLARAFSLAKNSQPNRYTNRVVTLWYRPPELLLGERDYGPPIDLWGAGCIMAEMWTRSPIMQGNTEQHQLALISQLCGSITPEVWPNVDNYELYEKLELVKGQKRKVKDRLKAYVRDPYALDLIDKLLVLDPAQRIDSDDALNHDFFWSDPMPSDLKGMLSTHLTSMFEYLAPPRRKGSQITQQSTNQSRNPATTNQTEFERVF
Chain of CDK9 (O60563 whole entry partner): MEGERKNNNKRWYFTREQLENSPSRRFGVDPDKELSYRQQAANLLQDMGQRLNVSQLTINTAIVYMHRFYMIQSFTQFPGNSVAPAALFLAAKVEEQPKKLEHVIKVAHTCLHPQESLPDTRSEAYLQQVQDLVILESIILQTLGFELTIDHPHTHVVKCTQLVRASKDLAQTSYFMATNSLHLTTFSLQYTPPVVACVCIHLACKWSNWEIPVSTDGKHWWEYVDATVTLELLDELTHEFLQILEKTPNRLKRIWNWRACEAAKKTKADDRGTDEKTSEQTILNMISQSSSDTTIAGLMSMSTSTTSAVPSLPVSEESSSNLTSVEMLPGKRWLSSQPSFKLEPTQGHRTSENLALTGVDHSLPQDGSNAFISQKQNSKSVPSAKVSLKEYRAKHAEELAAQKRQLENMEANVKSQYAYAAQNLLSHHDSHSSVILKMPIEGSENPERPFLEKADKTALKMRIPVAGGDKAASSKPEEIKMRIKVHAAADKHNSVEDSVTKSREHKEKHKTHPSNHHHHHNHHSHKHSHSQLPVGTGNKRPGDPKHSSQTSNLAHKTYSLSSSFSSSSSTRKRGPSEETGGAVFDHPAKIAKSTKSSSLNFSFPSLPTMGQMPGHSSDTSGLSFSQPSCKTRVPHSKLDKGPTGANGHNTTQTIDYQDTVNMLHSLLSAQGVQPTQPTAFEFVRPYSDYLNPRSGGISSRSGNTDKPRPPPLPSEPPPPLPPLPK
T2 sequence (P06493 whole entry): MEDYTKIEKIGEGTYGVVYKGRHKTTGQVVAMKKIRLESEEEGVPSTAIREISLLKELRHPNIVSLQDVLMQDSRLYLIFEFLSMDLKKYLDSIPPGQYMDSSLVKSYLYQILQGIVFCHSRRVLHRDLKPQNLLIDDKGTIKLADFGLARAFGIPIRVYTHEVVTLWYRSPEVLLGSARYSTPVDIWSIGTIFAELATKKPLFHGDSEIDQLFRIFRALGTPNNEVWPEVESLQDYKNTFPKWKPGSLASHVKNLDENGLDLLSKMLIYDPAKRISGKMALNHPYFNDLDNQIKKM
T2 sequence (P14635 whole entry partner): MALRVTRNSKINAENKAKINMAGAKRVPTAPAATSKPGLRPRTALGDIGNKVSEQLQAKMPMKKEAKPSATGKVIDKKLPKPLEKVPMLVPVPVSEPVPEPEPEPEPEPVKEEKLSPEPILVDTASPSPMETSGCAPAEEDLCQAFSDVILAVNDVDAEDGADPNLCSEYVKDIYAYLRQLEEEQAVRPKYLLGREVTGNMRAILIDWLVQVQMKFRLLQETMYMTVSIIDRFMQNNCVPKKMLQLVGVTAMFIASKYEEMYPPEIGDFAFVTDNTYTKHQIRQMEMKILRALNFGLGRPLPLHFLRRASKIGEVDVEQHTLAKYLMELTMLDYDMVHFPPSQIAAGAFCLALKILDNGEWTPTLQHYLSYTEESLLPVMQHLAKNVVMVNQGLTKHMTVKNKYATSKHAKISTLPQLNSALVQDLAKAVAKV

Structure (SMILES)	IC50 (CDK2) [nM]	IC50 (MOLM-13 cells; [1]) [nM]	IC50 (CDK1) [nM]	IC50 (CDK7) [nM]	IC50 (CDK9) [nM]	IC50 (MOLM-13 cells; MOLM-13, 16 h) [nM]
COc1cc(F)ccc1-c1cc(Nc2cc(CS(C)(=N)=O)ccn2)ncc1F (centres unmarked) [BAY1251152, reference compound]	811	118	570	4290		
CC(=O)NC[C@H]1CCC(F)(F)CN1C(=O)c1nc(Nc2cc(OC(F)(F)F)ccn2)ccc1C [Compound 5, (R)—N-((5,5-difluoro-1-(3-methyl-6-((4-(trifluoromethoxy)pyridin-2-yl)amino)pyridine-2-carbonyl)piperidin-2-yl)methyl)acetamide]	217	27.9	350	2600	5.8	
CC(=O)NC[C@H]1CCC(F)(F)CN1C(=O)c1nc(Nc2cc(OC(F)F)ccn2)ccc1C [Compound 11, (R)—N-((1-(6-((4-(difluoromethoxy)pyridin-2-yl)amino)-3-methylpyridine-2-carbonyl)-5,5-difluoropiperidin-2-yl)methyl)acetamide]	368	45.3	755	4350	5.1	
CC(=O)NC[C@H]1CCC(F)(F)CN1C(=O)c1nc(Nc2cc([N+](=O)[O-])ccn2)ccc1C [Compound 19, (R)—N-((5,5-difluoro-1-(3-methyl-6-((4-nitropyridin-2-yl)amino)pyridine-2-carbonyl)piperidin-2-yl)methyl)acetamide]	48.7	24.2	106	7780	9	
CC(=O)NC[C@H]1CCC(F)(F)CN1C(=O)c1nc(Nc2cc(Cl)ccn2)ccc1C [Compound 24, (R)—N-((1-(6-((4-chloropyridin-2-yl)amino)-3-methylpyridine-2-carbonyl)-5,5-difluoropiperidin-2-yl)methyl)acetamide]	408	70.9	> 10000	8760	7.1	
COC(=O)c1ccnc(Nc2ccc(C)c(C(=O)N3CC(F)(F)CC[C@@H]3CNC(C)=O)n2)c1 [Compound 56, (R)-2-((6-(2-(acetamidomethyl)-5,5-difluoropiperidine-1-carbonyl)-5-methylpyridin-2-yl)amino)methyl isonicotinate]	924		3750		7.7	180
NC[C@H]1CCC(F)(F)CN1C(=O)c1nc(Nc2cc(OC(F)(F)F)ccn2)ccc1F [Compound 67, (R)-(2-(aminomethyl)-5,5-difluoropiperidin-1-yl)(3-fluoro-6-((4-(trifluoromethoxy)pyridin-2-yl)amino)pyridin-2-yl)methanone]	61.2	66.8	140	656	6.8	
CC(=O)NC[C@H]1CCC(F)(F)CN1C(=O)c1nc(Nc2cc(OC(F)(F)F)ccn2)ccc1Cl [Compound 84, (R)—N-((1-(3-chloro-6-((4-(trifluoromethoxy)pyridin-2-yl)amino)pyridine-2-carbonyl)-5,5-difluoropiperidin-2-yl)methyl)acetamide]	577				6.2	58.6

More lines, in order of falling IC50 (CDK2), values ahead:

IC50 (CDK2) [nM]	IC50 (MOLM-13 cells; [1]) [nM]	IC50 (CDK1) [nM]	IC50 (CDK7) [nM]	IC50 (CDK9) [nM]	Structure (SMILES)	IC50 (MOLM-13 cells; MOLM-13, 16 h) [nM]
797	894			70.5	CC(=O)N[C@@H]1C[C@H](Nc2nc(Nc3cc(OC(F)(F)F)ccn3)ccc2C)CC(F)(F)C1 [Compound 60, N-((1R,5S)-3,3-difluoro-5-((3-methyl-6-((4-(trifluoromethoxy)pyridin-2-yl)amino)pyridin-2-yl)amino)cyclohexyl)acetamide]	
258	198			7.2	CC(=O)NC[C@H]1CCC(F)(F)CN1C(=O)c1cccc(Nc2cc(OC(F)(F)F)ccn2)n1 [Compound 80, (R)—N-((5,5-difluoro-1-(6-((4-(trifluoromethoxy)pyridin-2-yl)amino)pyridine-2-carbonyl)piperidin-2-yl)methyl)acetamide]	
144	22.1	426	4570	5.8	CC(=O)NC[C@H]1CCC(F)(F)CN1C(=O)c1nc(Nc2cc(C(F)F)ccn2)ccc1C [Compound 27, (R)—N-((1-(6-((4-(difluoromethyl)pyridin-2-yl)amino)-3-methylpyridine-2-carbonyl)-5,5-difluoropiperidin-2-yl)methyl)acetamide]	
120	120			6.3	CC(=O)NC[C@H]1CCC(F)(F)CN1C(=O)c1nc(Nc2cc(OC(F)(F)F)ccn2)ccc1F [Compound 64, (R)—N-((5,5-difluoro-1-(3-fluoro-6-((4-(trifluoromethoxy)pyridin-2-yl)amino)pyridine-2-carbonyl)piperidin-2-yl)methyl)acetamide]	
99.3	11.3	291	3180	11.7	CC(=O)NC[C@H]1CCC(F)(F)CN1C(=O)c1nc(Nc2cc(C(F)(F)F)ccn2)ccc1C [Compound 30, (R)—N-((5,5-difluoro-1-(3-methyl-6-((4-(trifluoromethyl)pyridin-2-yl)amino)pyridine-2-carbonyl)piperidin-2-yl)methyl)acetamide]	
36.7	24.8		1950	4.9	CC(=O)NC[C@H]1CCC(F)(F)CN1C(=O)c1nc(Nc2cc(C#N)ccn2)ccc1C [Compound 1, (R)—N-((1-(6-((4-cyanopyridin-2-yl)amino)-3-methylpyridine-2-carbonyl)-5,5-difluoropiperidin-2-yl)methyl)acetamide]	
30	63.1	261	479	3	Cc1ccc(Nc2cc(OC(F)(F)F)ccn2)nc1C(=O)N1CC(F)(F)CC[C@@H]1CN [Compound 34, (R)-(2-(aminomethyl)-5,5-difluoropiperidin-1-yl)(3-methyl-6-((4-(trifluoromethoxy)pyridin-2-yl)amino)pyridin-2-yl)methanone]	
18.6	17.1	8.3	31.4		CC(=O)N[C@@H]1CCC[C@H](C(=O)Nc2cc(-c3cnn4c3CC(C)(C)C4)c(Cl)cn2)C1 [AZD4573, reference compound]	
